Legend:
[1] = molecular target: EGFR (d746-750) (Homo sapiens (Human), UniProt P00533, DEL746-750); assay: Biochemical EGFR inhibition assay, EGFR (d746-750); details: Caliper mobility shift; 1.0 mM ATP or ATP Km; read-out: Enz EGFR_Exon19-del746-750 IC50
[2] = molecular target: pEGFR (Tyr1068) in PC-9 cells (Ex19Del) (Homo sapiens (Human), UniProt P00533, DEL746-750); assay: PC-9 pEGFR AlphaLISA assay; format: cell-based; details: 4 hours incubation, p-EGFR (Tyr1068) AlphaLISA, read-out: Ext pEGFR_PC-9 Ex19Del IC50
pEGFR (Tyr1068) in PC-9 cells (Ex19Del), sequence (P00533 other isoform, or with tags, fused parts or gaps del 746-750): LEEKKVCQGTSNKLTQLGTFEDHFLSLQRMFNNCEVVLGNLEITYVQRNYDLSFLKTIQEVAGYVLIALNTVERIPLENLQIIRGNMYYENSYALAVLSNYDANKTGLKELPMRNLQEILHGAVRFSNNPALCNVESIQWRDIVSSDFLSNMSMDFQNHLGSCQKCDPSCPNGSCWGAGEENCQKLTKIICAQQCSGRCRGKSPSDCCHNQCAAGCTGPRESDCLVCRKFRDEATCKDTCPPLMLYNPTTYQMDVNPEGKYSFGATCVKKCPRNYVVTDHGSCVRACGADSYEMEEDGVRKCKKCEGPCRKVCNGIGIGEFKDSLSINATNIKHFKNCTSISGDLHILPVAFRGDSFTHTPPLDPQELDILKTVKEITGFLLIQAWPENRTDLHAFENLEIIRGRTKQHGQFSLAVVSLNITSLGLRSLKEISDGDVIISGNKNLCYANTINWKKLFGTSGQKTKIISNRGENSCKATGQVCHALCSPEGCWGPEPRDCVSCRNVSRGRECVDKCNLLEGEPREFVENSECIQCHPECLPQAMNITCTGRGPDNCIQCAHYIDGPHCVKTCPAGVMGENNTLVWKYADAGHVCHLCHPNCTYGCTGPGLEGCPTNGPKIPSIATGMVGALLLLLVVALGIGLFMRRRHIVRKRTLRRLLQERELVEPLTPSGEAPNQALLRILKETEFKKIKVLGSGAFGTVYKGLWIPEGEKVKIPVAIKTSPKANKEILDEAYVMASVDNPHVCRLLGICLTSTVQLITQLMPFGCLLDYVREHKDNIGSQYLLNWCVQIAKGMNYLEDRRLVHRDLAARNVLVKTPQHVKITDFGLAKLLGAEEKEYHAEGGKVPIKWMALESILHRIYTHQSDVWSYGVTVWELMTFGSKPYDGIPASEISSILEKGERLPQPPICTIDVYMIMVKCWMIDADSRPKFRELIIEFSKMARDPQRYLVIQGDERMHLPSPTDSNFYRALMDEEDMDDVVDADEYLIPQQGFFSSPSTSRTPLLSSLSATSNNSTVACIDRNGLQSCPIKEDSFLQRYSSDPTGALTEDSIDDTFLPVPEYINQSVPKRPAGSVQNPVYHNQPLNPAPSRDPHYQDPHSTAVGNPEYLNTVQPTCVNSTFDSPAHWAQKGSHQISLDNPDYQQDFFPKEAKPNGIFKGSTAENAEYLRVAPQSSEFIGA
Method in brief: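 Phospho-EGFR (Tyr1068) was quantified by AlphaLISA SureFire Ultra in lysates of PC-9 cells exposed for 4 h to compound (4-fold, 10-point dilutions).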

[3] = molecular target: EGFR L858R (Homo sapiens (Human), UniProt P00533, L858R); assay: Biochemical EGFR inhibition assay, EGFR L858R; details: Caliper mobility shift; 1.0 mM ATP or ATP Km; read-out: Enz EGFR_L858R IC50
EGFR L858R, sequence (P00533 25-1210 L858R): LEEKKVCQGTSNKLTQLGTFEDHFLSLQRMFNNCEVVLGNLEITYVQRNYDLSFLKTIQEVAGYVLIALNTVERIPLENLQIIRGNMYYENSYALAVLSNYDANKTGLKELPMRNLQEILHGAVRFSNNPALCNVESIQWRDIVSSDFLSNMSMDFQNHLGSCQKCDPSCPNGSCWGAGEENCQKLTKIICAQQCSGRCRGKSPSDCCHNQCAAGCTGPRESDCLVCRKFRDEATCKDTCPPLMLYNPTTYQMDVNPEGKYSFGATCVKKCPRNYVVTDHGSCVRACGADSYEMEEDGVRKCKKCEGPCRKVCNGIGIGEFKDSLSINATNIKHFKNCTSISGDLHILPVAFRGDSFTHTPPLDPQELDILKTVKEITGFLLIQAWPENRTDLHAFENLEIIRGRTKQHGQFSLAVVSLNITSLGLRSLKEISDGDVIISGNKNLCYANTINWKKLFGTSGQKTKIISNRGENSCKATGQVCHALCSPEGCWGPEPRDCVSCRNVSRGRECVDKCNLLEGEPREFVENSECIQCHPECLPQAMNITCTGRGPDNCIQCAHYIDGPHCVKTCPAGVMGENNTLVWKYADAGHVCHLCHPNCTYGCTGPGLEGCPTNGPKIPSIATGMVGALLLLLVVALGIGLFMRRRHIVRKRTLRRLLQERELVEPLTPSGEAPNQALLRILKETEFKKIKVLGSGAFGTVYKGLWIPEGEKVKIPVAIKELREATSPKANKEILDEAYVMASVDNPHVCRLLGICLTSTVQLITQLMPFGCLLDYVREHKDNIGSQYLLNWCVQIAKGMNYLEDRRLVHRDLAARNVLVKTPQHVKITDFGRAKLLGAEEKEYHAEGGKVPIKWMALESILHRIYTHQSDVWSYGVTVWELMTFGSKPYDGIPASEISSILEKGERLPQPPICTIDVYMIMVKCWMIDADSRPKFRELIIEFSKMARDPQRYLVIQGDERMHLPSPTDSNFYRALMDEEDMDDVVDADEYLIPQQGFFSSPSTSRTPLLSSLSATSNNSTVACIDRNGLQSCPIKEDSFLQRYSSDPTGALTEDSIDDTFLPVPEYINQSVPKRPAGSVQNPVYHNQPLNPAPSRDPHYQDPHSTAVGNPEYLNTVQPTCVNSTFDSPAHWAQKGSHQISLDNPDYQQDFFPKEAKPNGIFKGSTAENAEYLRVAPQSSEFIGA

EGFR (d746-750), sequence (P00533 other isoform, or with tags, fused parts or gaps del 1-694/del 746-750 limits assumed): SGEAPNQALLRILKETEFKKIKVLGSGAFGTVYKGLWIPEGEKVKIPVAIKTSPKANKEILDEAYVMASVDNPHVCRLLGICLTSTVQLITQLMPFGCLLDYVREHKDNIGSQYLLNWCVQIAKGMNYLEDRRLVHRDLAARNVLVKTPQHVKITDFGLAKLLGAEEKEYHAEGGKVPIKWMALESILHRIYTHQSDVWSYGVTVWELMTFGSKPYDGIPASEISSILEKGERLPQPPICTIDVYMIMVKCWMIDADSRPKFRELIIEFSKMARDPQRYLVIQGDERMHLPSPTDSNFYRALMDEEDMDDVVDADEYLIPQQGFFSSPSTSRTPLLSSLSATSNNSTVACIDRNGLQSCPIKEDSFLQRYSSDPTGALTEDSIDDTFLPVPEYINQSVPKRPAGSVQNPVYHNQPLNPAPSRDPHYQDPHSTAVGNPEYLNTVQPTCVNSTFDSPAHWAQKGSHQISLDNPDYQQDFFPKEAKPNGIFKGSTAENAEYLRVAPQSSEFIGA

IC50 [1] [nM] | IC50 [2] [nM] | IC50 [3] [nM] | SMILES
0.8 | 2.5 | 2.1 | COc1cc2ncnc(-c3cn(C)nc3-c3ccccc3F)c2cc1NC(=O)[C@@]12C[C@@H]1CN(C)C2 (single isomer, unassigned) [Example 254, (1S,5S)—N-(4-(3-(2-fluorophenyl)-1-methyl-1H-pyrazol-4-yl)-7-methoxyquinazolin-6-yl)-3-methyl-3-azabicyclo[3.1.0]hexane-1-carboxamide or (1R,5R)—N-(4-(3-(2-fluorophenyl)-1-methyl-1H-pyrazol-4-yl)-7-methoxyquinazolin-6-yl)-3-methyl-3-azabicyclo[3.1.0]hexane-1-carboxamide]
0.5 | 0.4 | 4.8 | CCn1cc(-c2ncnc3cc(OC)c(NC(=O)[C@]45COC[C@H]4C5)nc23)c(-c2ccccc2)n1 (single isomer, unassigned) [Example 388, (1S,5S)—N-(4-(1-ethyl-3-phenyl-1H-pyrazol-4-yl)-7-methoxypyrido[3,2-d]pyrimidin-6-yl)-3-oxabicyclo[3.1.0]hexane-1-carboxamide or (1R,5R)—N-(4-(1-ethyl-3-phenyl-1H-pyrazol-4-yl)-7-methoxypyrido[3,2-d]pyrimidin-6-yl)-3-oxabicyclo[3.1.0]hexane-1-carboxamide]
4.7 | 18.7 | 8.7 | COc1cc2ncnc(-c3cn(C)nc3-c3ccccc3)c2cc1NC(=O)[C@@H]1CCN(C)C[C@H]1F [Example 284, (3S,4S)-3-fluoro-N-(7-methoxy-4-(1-methyl-3-phenyl-1H-pyrazol-4-yl)quinazolin-6-yl)-1-methylpiperidine-4-carboxamide]
2 | 3.6 | 5.6 | COc1cc2ncnc(-c3cn(C)nc3-c3ccc(Cl)cc3)c2nc1NC(=O)C12CC(N(C)C)(C1)C2 [Example 474, N-{4-[3-(4-chlorophenyl)-1-methyl-1H-pyrazol-4-yl]-7-methoxypyrido[3,2-d]pyrimidin-6-yl}-3-(dimethylamino) bicyclo[1.1.1]pentane-1-carboxamide]
1 | 0.8 | 1.5 | COc1cc2ncnc(-c3cn(CC(F)F)nc3-c3ccccc3)c2cc1N1CCOCC1 [Example 168, 4-(4-(1-(2,2-difluoroethyl)-3-phenyl-1H-pyrazol-4-yl)-7-methoxyquinazolin-6-yl)morpholine]
1 | 4 | 2.1 | COc1cc2ncnc(-c3cn(C(F)F)nc3-c3ccccc3)c2nc1NC(=O)C12CC(C1)C2 [Example 364, N-(4-(1-(difluoromethyl)-3-phenyl-1H-pyrazol-4-yl)-7-methoxypyrido[3,2-d]pyrimidin-6-yl)bicyclo[1.1.1]pentane-1-carboxamide]
1.1 | 1 | 1.8 | COc1cc2ncnc(-c3cn(CC(F)F)nc3-c3ccccc3)c2nc1NC(=O)c1ccc(C2CC2)nc1 [Example 358, 6-cyclopropyl-N-(4-(1-(2,2-difluoroethyl)-3-phenyl-1H-pyrazol-4-yl)-7-methoxypyrido[3,2-d]pyrimidin-6-yl)nicotinamide]
2.4 | 2.7 | 11.1 | CN(C)C12CC(C(=O)Nc3nc4c(-c5cn(C)nc5-c5ccccc5F)ncnc4cc3OC3CC3)(C1)C2 [Example 469, N-{7-cyclopropoxy-4-[3-(2-fluorophenyl)-1-methyl-1H-pyrazol-4-yl]pyrido[3,2-d]pyrimidin-6-yl}-3-(dimethylamino) bicyclo[1.1.1]pentane-1-carboxamide]
1.7 | 3.7 | 3.5 | COc1cc2ncnc(-c3cn(C)nc3-c3ccccc3)c2cc1NC(=O)c1ccc(C2CC2)nc1 [Example 229, 6-cyclopropyl-N-(7-methoxy-4-(1-methyl-3-phenyl-1H-pyrazol-4-yl)quinazolin-6-yl) nicotinamide]
0.8 | 2.5 | 1.8 | COc1cc2ncnc(-c3cn(C)nc3-c3ccccc3)c2cc1NC(=O)c1ccccc1C [Example 197, N-(7-methoxy-4-(1-methyl-3-phenyl-1H-pyrazol-4-yl)quinazolin-6-yl)-2-methylbenzamide]
1.1 | 2.5 | 2.9 | COc1cc2ncnc(-c3cn(C)nc3-c3ccc(F)cc3)c2nc1NC(=O)[C@@]12C[C@@H]1CN(C)C2 (single isomer, unassigned) [Example 410, (1S,5S)—N-(4-(3-(4-fluorophenyl)-1-methyl-1H-pyrazol-4-yl)-7-methoxypyrido[3,2-d]pyrimidin-6-yl)-3-methyl-3-azabicyclo[3.1.0]hexane-1-carboxamide or (1R,5R)—N-(4-(3-(4-fluorophenyl)-1-methyl-1H-pyrazol-4-yl)-7-methoxypyrido[3,2-d]pyrimidin-6-yl)-3-methyl-3-azabicyclo[3.1.0]hexane-1-carboxamide]
1.9 | 2.7 | 7.6 | CCc1ccc(-c2cc3c(-c4cn(C)nc4-c4ccccc4)ncnc3cc2OC)c2c[nH]nc12 [Example 472, 6-(7-ethyl-2H-indazol-4-yl)-7-methoxy-4-(1-methyl-3-phenyl-1H-pyrazol-4-yl)quinazoline]
1.9 | 2.8 | 3.1 | COc1cc2ncnc(-c3cn(C)nc3-c3ccccc3)c2nc1NC(=O)C12CC(C1)C2 [Example 309, N-(7-methoxy-4-(1-methyl-3-phenyl-1H-pyrazol-4-yl)pyrido[3,2-d]pyrimidin-6-yl)bicyclo[1.1.1]pentane-1-carboxamide]
0.8 | 1.3 | 2 | COc1cc2ncnc(-c3cn(C)nc3-c3ccccc3F)c2cc1NC(=O)C1(CN(C)C)CC1 [Example 188, 1-((dimethylamino)methyl)-N-(4-(3-(2-fluorophenyl)-1-methyl-1H-pyrazol-4-yl)-7-methoxyquinazolin-6-yl)cyclopropane-1-carboxamide]
1.6 | 4.3 | 3.5 | COc1cc2ncnc(-c3cn(C)nc3-c3ccccc3)c2cc1NC(=O)[C@@H]1C[C@H]1C(F)(F)F [Example 286, (1R,2R)—N-(7-methoxy-4-(1-methyl-3-phenyl-1H-pyrazol-4-yl)quinazolin-6-yl)-2-(trifluoromethyl)cyclopropane-1-carboxamide]
1.1 | 11.5 | 1.2 | COc1cc2ncnc(-c3cn(C)nc3-c3ccccc3)c2cc1[C@H](C)O (single isomer, unassigned) [Example 116, (S)-1-(7-methoxy-4-(1-methyl-3-phenyl-1H-pyrazol-4-yl)quinazolin-6-yl)ethan-1-ol or (R)-1-(7-methoxy-4-(1-methyl-3-phenyl-1H-pyrazol-4-yl)quinazolin-6-yl)ethan-1-ol]
2.4 | 6 | 3.9 | C[C@@H](O)c1cc2c(-c3cn(CC(F)F)nc3-c3ccccc3)ncnc2cc1O[C@H]1CCOC1 (single isomer, unassigned) [Example 118, (R)-1-(4-(1-(2,2-difluoroethyl)-3-phenyl-1H-pyrazol-4-yl)-7-(((S)-tetrahydrofuran-3-yl)oxy)quinazolin-6-yl)ethan-1-ol or (S)-1-(4-(1-(2,2-difluoroethyl)-3-phenyl-1H-pyrazol-4-yl)-7-(((S)-tetrahydrofuran-3-yl)oxy)quinazolin-6-yl)ethan-1-ol]
1 | 0.5 | 1.2 | COc1cc2ncnc(-c3cn(CC(F)F)nc3-c3ccccc3)c2cc1NC(=O)c1ccns1 [Example 272, N-(4-(1-(2,2-difluoroethyl)-3-phenyl-1H-pyrazol-4-yl)-7-methoxyquinazolin-6-yl)isothiazole-5-carboxamide]
1 | 1.4 | 1.6 | COc1cc2ncnc(-c3cn(C)nc3-c3ccccc3)c2cc1NC(=O)c1cnn2c1CCCC2 [Example 226, N-(7-methoxy-4-(1-methyl-3-phenyl-1H-pyrazol-4-yl)quinazolin-6-yl)-4,5,6,7-tetrahydropyrazolo[1,5-a]pyridine-3-carboxamide]
3.2 | 8.8 | 6.9 | COc1cc2ncnc(-c3cn(C)nc3-c3ccccc3)c2nc1NC(=O)c1ccc(F)cc1 [Example 312, 4-fluoro-N-(7-methoxy-4-(1-methyl-3-phenyl-1H-pyrazol-4-yl)pyrido[3,2-d]pyrimidin-6-yl)benzamide]
2.9 | 7.2 | 12.7 | CN(C)C12CC(C(=O)Nc3nc4c(-c5cn(C)nc5-c5ccc(F)cc5)ncnc4cc3OC3CC3)(C1)C2 [Example 461, N-{7-cyclopropoxy-4-[3-(4-fluorophenyl)-1-methyl-1H-pyrazol-4-yl]pyrido[3,2-d]pyrimidin-6-yl}-3-(dimethylamino) bicyclo[1.1.1]pentane-1-carboxamide]

SMILES | IC50 [1] [nM] | IC50 [2] [nM] | IC50 [3] [nM]
COc1cc2ncnc(-c3cn(C)nc3-c3ccccc3)c2cc1OC(=O)N1CCN(C)CC1(C)C [Example 78, 7-methoxy-4-(1-methyl-3-phenyl-1H-pyrazol-4-yl)quinazolin-6-yl 2,2,4-trimethylpiperazine-1-carboxylate] | 2.4 | 8.1 | 7

— US20250236608A1, “EGFR INHIBITORS” (Blueprint Medicines Corporation, priority 2022, published 2025)
